From paper PMC9721426, “Novel piperine-carboximidamide hybrids: design, synthesis, and antiproliferative activity via a multi-targeted inhibitory pathway” (Journal of Enzyme Inhibition and Medicinal Chemistry, 2022) come the findings set out here.

The subject of data set [1] is MCF-7 (breast cancer cell line). Briefly: Antiproliferative MTT assay, MCF-7. The format is cell-based. As to conditions: Homo sapiens, MCF7; MCF-7, MTT; read-out: Antiproliferative activity IC50 ± SEM, MCF-7. As to the method:
(§1) The MTT assay was performed using various cell lines in accordance with previously reported procedures[28]^,[29] to investigate the antiproliferative potential of VIa-k. Refer to Appendix A. […]
(§2) added (in 200 μL medium to yield a final concentration of 0.1% v/v) to the wells of plates. A single compound was designated with four wells followed by incubation of […]
(§3) After incubation, medium was removed completely from the plates followed by addition of MTT (0.4 mg/mL in medium) to each well and subsequent incubation of plates for 3h. MTT (along with the medium) was removed and DMSO (150μL) was added to each well of the culture plates, followed by vortexing and subsequent measurement of absorbance (at 540 nm) using microplate reader. The data are shown as percentage inhibition of proliferation in comparison with controls containing 4.2.1.2. Assay for antiproliferative effect […]
(§4) The percentage cytotoxicity of compounds was calculated using the following […]
(§5) Where ATC= Absorbance of treated cells and AC= Absorbance of control. […]
(§6) used as positive control in the assay. […]

Data set [2] in a line: MTT cell viability assay on normal mammary epithelial cells. The data set is classed as cell-based. As to conditions: human, MCF-10A mammary epithelial cells, MCF-10A normal cells, 4 days incubation. As to the method:
A human mammary gland epithelial (MCF-10A) normal cell line was used to perform the viability test. The viability of compounds VIa-k was determined using the MTT assay after 4 days of incubation with MCF-10A cells[26]^,[27].
The MTT assay was used to assess how the synthetic compounds impacted the viability of mammary epithelial cells (MCF-10A)[26]^,[27]. Appendix A. […]
4.2. Biological evaluation
4.2.1. Cytotoxic activity using MTT Assay and evaluation of IC50
MTT assay was carried out to study the effect of compounds on mammary epithelial cells (MCF-10A)26,27. The medium in which cells were propagated contained Dulbecco's modified Eagle's medium (DMEM)/ Ham's F-12 medium (1:1) supplemented with epidermal growth factor (20 ng/mL), hydrocortisone (500 ng/mL), insulin (10 μg/mL), 2 mM glutamine and 10% foetal calf serum. After every 2-3 days, the cells were passaged using trypsin ethylenediamine tetra acetic acid (EDTA). The cells were seeded at a density of 10^4 cells mL-1 in flat-bottomed culture plates containing 96 wells each. […]
A single compound was designated with four wells followed by incubation of plates for 96h at 37°C. After incubation, medium was removed completely from the plates followed by addition of MTT (0.4 mg/mL in medium) to each well and subsequent incubation of plates for 3h. MTT (along with the medium) was removed and DMSO (150μL) was added to each well of the culture plates, followed by vortexing and subsequent measurement of absorbance (at 540 nm) using microplate reader. […]

Data set [3] concerns HT-29 (colon cancer cell line). Briefly: Antiproliferative MTT assay, HT-29. The format is cell-based. As to conditions: Homo sapiens; HT-29, MTT; read-out: Antiproliferative activity IC50 ± SEM, HT-29. As to the method: as §1, §2, §3, §4, §5, §6
For data set [4], the system named is four human cancer cell lines (Panc-1, MCF-7, HT-29, A-549). Briefly: Antiproliferative MTT assay, average (GI50) over the four cancer cell lines. The format is cell-based. The conditions noted are these: for GI50: Homo sapiens, average of IC50 versus A-549, MCF-7, Panc-1, HT-29; for GI50 potency relative to VIi (less potent): ratio of GI50 values. How it is done:
The average (GI50) versus the four cancer cell lines was chosen for ease of manipulation.
as §1, §2, §3, §4, §5, §6

The test system of data set [5] is A-549 (epithelial cancer cell line). Briefly: Antiproliferative MTT assay, A-549. The data set is classed as cell-based. The conditions noted are these: Homo sapiens, A549; A-549, MTT; read-out: Antiproliferative activity IC50 ± SEM, A-549. As to the method:
as §1, §2, §3, §4, §5, §6

The test system of data set [6] is Panc-1 (pancreatic cancer cell line). Briefly: Antiproliferative MTT assay, Panc-1. The data set is classed as cell-based. As to conditions: Homo sapiens; Panc-1, MTT; read-out: Antiproliferative activity IC50 ± SEM, Panc-1. As to the method: as §1, §2, §3, §4, §5, §6

`NC(=NOC(=O)/C=C/C=C/c1ccc2c(c1)OCO2)c1ccccc1` [VIa, N'-{[(2E,4E)-5-(2H-1,3-Benzodioxol-5-yl)penta-2,4-dienoyl]oxy}benzene carboximidamide] yielded a melting point of 175 to 177 °C. The IC50 in data set [1] is 97 ± 10 nM. Also, the viability at 4 days, 50 µM in data set [2] was determined as 89%. Besides, the IC50 in data set [3] came out at 105 ± 10 nM. The molecule further registered a GI50 in data set [4] of 100 nM. The IC50 in data set [5] is 95 ± 10 nM. Moreover, in data set [6], the IC50 is 104 ± 10 nM.

As to `NC(=NOC(=O)/C=C/C=C/c1ccc2c(c1)OCO2)c1ccc(Cl)cc1` [VIb, N'-{[(2E,4E)-5-(2H-1,3-Benzodioxol-5-yl)penta-2,4-dienoyl]oxy}-4-chlorobenzene-1-carboximidamide], the melting point was 157 to 160 °C. In addition, in data set [1], the IC50 was found to be 57 ± 6 nM. The molecule further yielded a viability at 4 days, 50 µM in data set [2] of 85%. The IC50 in data set [3] amounted to 58 ± 6 nM. Growth in data set [4] was halved (GI50) at 57 nM. Further, the IC50 in data set [5] turned out to be 55 ± 6 nM. Besides, the concentration for half-maximal inhibition (IC50) in data set [6] amounted to 59 ± 6 nM.

`COc1ccc(C(N)=NOC(=O)/C=C/C=C/c2ccc3c(c2)OCO3)cc1` [VId, N'-{[(2E,4E)-5-(2H-1,3-Benzodioxol-5-yl)penta-2,4-dienoyl]oxy}-4-methoxybenzene-1-carboximidamide]: the IC50 in data set [1] was 52 ± 5 nM; in data set [3], 57 ± 5 nM; in data set [5], 50 ± 5 nM; in data set [6], 57 ± 5 nM. The molecule further gave a viability at 4 days, 50 µM in data set [2] of 91%. Moreover, in data set [4], the GI50 worked out at 54 nM. Further, in data set [4], the “GI50 potency relative to VIi (less potent)” value is “about 1.4 fold”.

On to `Cc1ccc(C(N)=NOC(=O)/C=C/C=C/c2ccc3c(c2)OCO3)cc1` [VIe, N'-{[(2E,4E)-5-(2H-1,3-Benzodioxol-5-yl)penta-2,4-dienoyl]oxy}-4-methylbenzene-1-carboximidamide], for which the melting point was 185 to 188 °C. For the same molecule, the IC50 in data set [1] is 73 ± 7 nM. This molecule registered a viability at 4 days, 50 µM in data set [2] of 89%. Moreover, in data set [3], the IC50 worked out at 75 ± 7 nM. In addition, in data set [4], growth was halved (GI50) at 73 nM. The IC50 in data set [5] is 69 ± 7 nM. Also, the IC50 in data set [6] is 75 ± 7 nM.

In turn, `NC(=NOC(=O)/C=C/C=C/c1ccc2c(c1)OCO2)c1cccc(Br)c1` [VIh, N'-{[(2E,4E)-5-(2H-1,3-benzodioxol-5-yl)penta-2,4-dienoyl]oxy}-3-bromobenzene-1-carboximidamide] showed a melting point of 141 to 143 °C. Also, the 50% inhibitory concentration (IC50) in data set [1] came to 64 ± 6 nM. This molecule returned a viability at 4 days, 50 µM in data set [2] of 91%. Further, in data set [3], the concentration for half-maximal inhibition (IC50) is 67 ± 6 nM. Also, halving of growth in data set [4] (GI50) required 65 nM. The IC50 in data set [5] came to 61 ± 6 nM. Moreover, the IC50 in data set [6] was found to be 69 ± 6 nM.

Consider `N/C(=N/OC(=O)/C=C/C=C/c1ccc2c(c1)OCO2)c1cccc2ccccc12` [VIj, N'-{[(2E,4E)-5-(2H-1,3-benzodioxol-5-yl)penta-2,4-dienoyl]oxy} naphthalene-1-carboximidamide], for which the IC50 worked out at 81 ± 8 nM in data set [1], 88 ± 9 nM in data set [3], 78 ± 8 nM in data set [5] and 84 ± 8 nM in data set [6]. In addition, the viability at 4 days, 50 µM in data set [2] turned out to be 85%. In data set [4], it took 83 nM to inhibit growth by half (GI50). For the same molecule, the “GI50 potency relative to VIi (less potent)” value in data set [4] is reported as 2 fold.
